Experimental data: patent US20250231178A1, “A BIOMARKER FOR DETERMINING ALZHEIMER'S DISEASE” (UNIVERSITY OF EASTERN FINLAND, priority 2022, published 2025)

Key:
[1] = molecular target: T1, PIEZO1 receptor in red blood cells (RBCs) (Homo sapiens, UniProt Q92508); assay: Yoda1-induced Ca flux in red blood cells, Fluo4 am, microtiter plate format and fluorometer; type: cell-based; conditions: n=4, mean±SEM, plate reader
T1 construct: indicating the Ca^2+ influx into the red blood cells (RBCs) through PIEZO1 ion channels; endogenous in cells; host or cells: Red blood cells from venous blood of healthy, MCI and AD donors
T1 sequence (Q92508 whole entry): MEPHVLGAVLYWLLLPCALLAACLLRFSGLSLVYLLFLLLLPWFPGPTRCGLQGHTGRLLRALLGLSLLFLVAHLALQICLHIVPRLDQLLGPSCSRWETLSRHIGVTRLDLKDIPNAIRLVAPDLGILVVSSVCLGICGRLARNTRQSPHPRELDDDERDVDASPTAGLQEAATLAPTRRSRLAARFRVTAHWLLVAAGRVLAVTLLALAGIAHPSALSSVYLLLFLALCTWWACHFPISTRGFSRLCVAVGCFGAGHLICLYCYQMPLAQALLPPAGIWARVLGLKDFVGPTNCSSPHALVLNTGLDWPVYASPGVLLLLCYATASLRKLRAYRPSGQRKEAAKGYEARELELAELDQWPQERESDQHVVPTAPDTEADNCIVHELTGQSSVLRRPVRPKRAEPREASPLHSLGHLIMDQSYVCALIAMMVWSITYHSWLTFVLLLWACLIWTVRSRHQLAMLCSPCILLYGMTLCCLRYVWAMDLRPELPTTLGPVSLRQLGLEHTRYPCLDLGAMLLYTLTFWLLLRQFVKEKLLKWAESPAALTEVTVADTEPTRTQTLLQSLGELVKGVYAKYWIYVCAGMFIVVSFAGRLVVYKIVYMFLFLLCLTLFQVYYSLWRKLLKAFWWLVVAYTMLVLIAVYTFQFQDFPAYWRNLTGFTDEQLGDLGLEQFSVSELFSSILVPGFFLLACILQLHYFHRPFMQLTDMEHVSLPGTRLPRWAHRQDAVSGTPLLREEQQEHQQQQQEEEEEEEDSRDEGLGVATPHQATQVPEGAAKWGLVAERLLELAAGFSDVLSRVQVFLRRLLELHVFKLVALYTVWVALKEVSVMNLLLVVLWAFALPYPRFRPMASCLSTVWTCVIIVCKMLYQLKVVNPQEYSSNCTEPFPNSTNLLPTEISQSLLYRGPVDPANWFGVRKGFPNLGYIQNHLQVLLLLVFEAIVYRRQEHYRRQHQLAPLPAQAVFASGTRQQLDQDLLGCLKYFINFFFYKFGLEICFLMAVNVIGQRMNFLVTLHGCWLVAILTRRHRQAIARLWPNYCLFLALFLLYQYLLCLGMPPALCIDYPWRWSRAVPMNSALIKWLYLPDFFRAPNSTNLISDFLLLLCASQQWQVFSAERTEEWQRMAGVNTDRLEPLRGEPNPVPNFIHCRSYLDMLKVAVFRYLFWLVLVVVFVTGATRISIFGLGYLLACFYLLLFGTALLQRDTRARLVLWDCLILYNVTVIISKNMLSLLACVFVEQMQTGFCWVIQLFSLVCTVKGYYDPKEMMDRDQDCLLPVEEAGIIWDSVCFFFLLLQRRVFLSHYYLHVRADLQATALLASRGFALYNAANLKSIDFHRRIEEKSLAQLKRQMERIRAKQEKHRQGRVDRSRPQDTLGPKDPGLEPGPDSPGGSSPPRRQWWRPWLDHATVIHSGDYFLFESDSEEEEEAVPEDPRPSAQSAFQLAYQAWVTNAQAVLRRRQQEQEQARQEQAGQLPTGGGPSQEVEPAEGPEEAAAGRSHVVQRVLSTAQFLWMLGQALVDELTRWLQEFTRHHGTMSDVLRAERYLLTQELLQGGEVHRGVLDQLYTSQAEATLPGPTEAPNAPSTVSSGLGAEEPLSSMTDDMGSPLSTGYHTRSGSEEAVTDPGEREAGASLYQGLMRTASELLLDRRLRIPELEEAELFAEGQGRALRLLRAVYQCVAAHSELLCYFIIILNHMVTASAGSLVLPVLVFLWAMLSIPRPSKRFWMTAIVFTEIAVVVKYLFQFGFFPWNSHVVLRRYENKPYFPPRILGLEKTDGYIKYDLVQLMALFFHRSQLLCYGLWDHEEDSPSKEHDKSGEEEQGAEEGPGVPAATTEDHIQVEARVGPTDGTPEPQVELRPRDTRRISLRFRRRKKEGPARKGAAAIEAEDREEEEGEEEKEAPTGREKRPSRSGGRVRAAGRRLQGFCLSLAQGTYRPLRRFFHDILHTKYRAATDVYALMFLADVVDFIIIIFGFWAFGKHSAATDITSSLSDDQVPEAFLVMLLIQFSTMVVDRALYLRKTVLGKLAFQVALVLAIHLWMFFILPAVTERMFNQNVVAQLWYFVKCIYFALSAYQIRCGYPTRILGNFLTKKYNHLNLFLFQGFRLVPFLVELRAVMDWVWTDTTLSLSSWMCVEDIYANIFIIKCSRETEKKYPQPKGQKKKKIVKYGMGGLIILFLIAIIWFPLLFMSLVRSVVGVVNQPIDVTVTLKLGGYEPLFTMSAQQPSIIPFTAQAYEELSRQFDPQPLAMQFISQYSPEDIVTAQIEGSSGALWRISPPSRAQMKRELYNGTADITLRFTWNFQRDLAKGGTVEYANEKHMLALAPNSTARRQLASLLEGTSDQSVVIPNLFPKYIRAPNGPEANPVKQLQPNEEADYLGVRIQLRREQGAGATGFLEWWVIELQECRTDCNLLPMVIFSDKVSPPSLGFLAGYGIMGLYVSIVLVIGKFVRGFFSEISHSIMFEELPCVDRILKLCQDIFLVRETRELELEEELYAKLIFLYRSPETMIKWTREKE
Method: Mann-Whitney test, two-tailed, *p<0.05. […] Signals recorded without addition of Fluo4, with and without Yoda1, were subtracted from their Fluo4 loaded counterparts to give the final read-outs used in normalising the results.
300 μL of blood from the healthy persons and AD patients was collected into the blood sampling tubes with sodium citrate to prevent coagulation. The samples were washed twice with PBS buffer (Ca^2+ and Mg^2+ free) by centrifugation at 300 G for 5 minutes. […] of the red blood cell (RBC) pellet was divided into […], 50 μL for fluorescent staining and 50 μL for the negative control. […] The samples were distributed into the microtitration plate (96-wells, 180 μL per well), after which the ground level of fluorescence (485 nm/535 nm, 1.0 s, Victor Wallac) was measured immediately. 20 μL of DMSO (for vehicle control) or 20 μL of 5 μM Yoda1 (for PIEZO1 activity) was added into the wells, and the fluorescence was measured immediately. The fluorescence signal of the sample having no Fluo4 am was subtracted from the fluorescence signals of the vehicle and Yoda1 samples treated with Fluo4 am. The increase in fluorescence upon addition of Yoda1 was normalized to the signal measured before addition of Yoda1. The normalized increase fluorescence was 2.62±0.42 for healthy and 5.64±0.23 for AD (mean #SEM) (FIG. 3G). […]

[2] = molecular target: T1, PIEZO1 receptor in red blood cells (RBCs); assay: Yoda1-induced Ca flux in red blood cells, Fluo4 am, flow cytometry (FACS) time-lapse; type: cell-based; conditions: for normalized MFI levels (Fluo4 am median fluorescence intensity normalized on baseline): 10 μM Yoda1, 60 s of recording
Method: The venous blood samples from healthy subjects, patients with mild cognitive impairment (MCI), and patients with Alzheimer's disease (AD) were collected into BD Vacutainer® blood collection tubes containing the K3-EDTA anti-coagulant. 150 μl of whole blood was taken for further processing, washed two times with 10 ml of phosphate-buffered saline (PBS) (5 mins, 300 g, RT (=about 20-25° C.) to remove plasma. After the second wash, the supernatant was removed and 50 μl of red blood cells (RBCs) were transferred to clean falcon tube and resuspended in 200 μl PBS (250 μl total volume of cell suspension). 250 μl of Fluo4 am AM (Thermo Fisher Scientific) fluorescent dye was added and cells were incubated for 30 minutes at 37° C. in dark.
After the incubation, cell suspension was washed twice with 5 ml of PBS, followed by one wash with HBSS (5 mins, 300 g, RT). Supernatant was carefully removed with pipette and 50 μl pellet was resuspended in 450 μl of Hank's Balanced Salt Solution (HBSS) to form 10% cell suspension. 10 μl of 10% cell suspension was transferred to 390 μl of RPMI/FBS (10:1) (400 μl final volume). This cell suspension was further used for flow cytometry time-lapse assessment using CytoFLEX S flow cytometer (Beckman Coulter, USA).
At the start of the recording, at t=0 seconds, baseline fluorescence was recorded for 20 seconds. At t=20 seconds, Yoda1 in DMSO was applied to the sample at the final concentration of 5 or 10 μM. At t=4 minutes and 20 seconds, ionomycin, serving as the positive control, was applied at the final concentration 10 μM. Recording was finished at t=5 minutes 30 seconds.
FIGS. 3A-3C plot the mean values of Ca^2+ signal for each group with 10 μM Yoda1 spanning from BL (t=0 seconds) to t=4 minutes, while the FIGS. 3D-3F show the measurements of individual samples at t=60 seconds.
All flow cytometric data were analyzed using CytExpert Software v 2.4 (Beckman Coulter Inc., CA, USA). Yoda1-induced Ca flux was measured by using Fluo4 am median fluorescence intensity (MFI) of single cells after Yoda1 application at different time points—baseline (before application of Yoda1 at 10 μM concentrations), and every 20 sec of the recording.
Data were analyzed using GraphPad Prism Software (CA, USA). Statistical analysis was performed using Mann-Whitney test, two-tailed. The data are presented as mean±SEM.

normalized increase fluorescence (signal after Yoda1 normalized to signal before addition) ([1]; 5 μM Yoda1, RBCs of AD patients): 5.64±0.23
normalized increase fluorescence (signal after Yoda1 normalized to signal before addition) ([1]; 5 μM Yoda1, RBCs of healthy persons): 2.62±0.42
normalized MFI levels (Fluo4 am median fluorescence intensity normalized on baseline) ([2]; RBCs of AD patients, n=21, mean±SEM): 8.57±0.6
normalized MFI levels (Fluo4 am median fluorescence intensity normalized on baseline) ([2]; RBCs of MCI patients, n=26, mean±SEM): 7.9±0.48
normalized MFI levels (Fluo4 am median fluorescence intensity normalized on baseline) ([2]; RBCs of control (healthy) subjects, n=23, mean±SEM): 5.64±0.27
time at which maximum Fluo4 am MFI levels were reached ([2]; 10 μM Yoda1 applied at 20 s of recording, levels remained similar till end of 4 min recording): ≤ 60 s
Compound: Clc1cccc(Cl)c1CSc1nnc(-c2cnccn2)s1 [Yoda1, 2-[(2,6-Dichlorophenyl)methylsulfanyl]-5-pyrazin-2-yl-1,3,4-thiadiazole]
